The record followed here is article PMC6882468 (Journal of Enzyme Inhibition and Medicinal Chemistry, 2019).

The subject of the assay is DNFB-induced mouse model of allergic contact dermatitis. Nature of the assay: DNFB-induced mouse model of allergic contact dermatitis (ear swelling). Format: in vivo, Male ICR mice. As to conditions: for Swelling degree / Inhibition (%) of ear swelling: mice, 5 mg/kg intragastric once a day for 6 days; for Swelling degree: ear slices weighed 24 h after DNFB challenge, Mean ± SD, n = 6; for Inhibition (%) of ear swelling: vs model group. The procedure: Male ICR mice (20 ± 2 g) were obtained from the Experimental Animal Centre of Anhui Medical University (Hefei, China). The mice reared in a pathogen-free setting (23 ± 2 °C, 55 ± 5% humidity) with free access to water and pelleted food throughout the experimental cycle. All experimental procedures performed in accordance with guide for the Care and Use of Laboratory Animals (National Research Council, 1996) and were approved by the Experimental Animal Ethics Committee of Anhui University of Chinese Medicine (Hefei, China). After 7 days acclimatisation, the mice were randomly divided into control group, ACD model group, dexamethasone positive control group and 20 compound groups, six in each group. The control group and the model group were given the same dose of the vehicle, the positive control group was given dexamethasone 0.5 mg/kg, and the test compound groups were given compound 5 mg/kg, all of which were given by intragastric administration and were administered once a day for 6 days. Except for the control group, the 50 µL of 1% DNFB (in acetone/olive oil 4:1) was administered to the stripped epidermis, and repeated the next day. After 6 days of drug treatment, 10 µL of 1% DNFB acetone olive oil solution was applied on both sides of the right ear to stimulate inflammation, and equivalent acetone olive oil solution was applied on the left ear for comparison. […] Calculation was carried out according to the following equations. Swelling degree (mg) = MR – ML Inhibitory rate of ear swelling (%)=((MR – ML) model – (MR – ML) treated)/(MR – ML) model ×100% MR=Average weight of the right ear slices;ML= Average weight of the left ear slices […] Dexamethasone (DEX) at a p.o. dose of 0.5 mg/kg was employed as the positive control. After the mice were sacrificed, the swelling degree and inhibition rate were calculated by weighing the same part of both ears.

As to `CC(=O)c1ccccc1C(=O)N1CCN(Cc2ccc(Cl)cc2)CC1` [Compound 6a, 1–(2-(4–(4-Chlorobenzyl)piperazine-1-carbonyl)phenyl)ethan-1-one], the “Swelling degree” value came to 11.9 ± 3.7 mg and the “Inhibition (%) of ear swelling” value was 27.4%.

For `COc1ccc(CN2CCN(C(=O)c3ccccc3C(C)=O)CC2)cc1` [Compound 6b, 1–(2-(4–(4-Methoxybenzyl)piperazine-1-carbonyl)phenyl)ethan-1-one], the “Swelling degree” value turned out to be 12.0 ± 3.4 mg and the “Inhibition (%) of ear swelling” value is recorded as 26.8%.

`CC(=O)c1ccccc1C(=O)N1CCN(Cc2ccc(C#N)cc2)CC1` [Compound 6c, 4-((4–(2-Acetylbenzoyl)piperazin-1-yl)methyl)benzonitrile]: the “Swelling degree” value came out at 11.3 ± 4.0 mg and the “Inhibition (%) of ear swelling” value was 31.1%.

With `CC(=O)c1ccccc1C(=O)N1CCN(Cc2ccc(C(F)(F)F)cc2)CC1` [Compound 6d, 1–(2-(4–(4-(Trifluoromethyl)benzyl)piperazine-1-carbonyl)phenyl)ethan-1-one], the “Swelling degree” value is 12.5 ± 3.4 mg and the “Inhibition (%) of ear swelling” value came out at 23.8%.

On to `CC(=O)c1ccccc1C(=O)N1CCN(Cc2ccc([N+](=O)[O-])cc2)CC1` [Compound 6e, 1–(2-(4–(4-Nitrobenzyl)piperazine-1-carbonyl)phenyl)ethan-1-one], for which the “Swelling degree” value stood at 13.0 ± 3.3 mg and the “Inhibition (%) of ear swelling” value is on record as 20.7%.

As to `CC(=O)c1ccccc1C(=O)N1CCN(Cc2ccc(Cl)cc2Cl)CC1` [Compound 6g, 1–(2-(4–(2,4-Dichlorobenzyl)piperazine-1-carbonyl)phenyl)ethan-1-one], the “Swelling degree” value is 12.9 ± 2.6 mg and the “Inhibition (%) of ear swelling” value was 21.3%.

For the compound `CC(=O)c1ccccc1C(=O)N1CCN(Cc2ccccc2Cl)CC1` [Compound 6h, 1–(2-(4–(2-Chlorobenzyl)piperazine-1-carbonyl)phenyl)ethan-1-one], the “Swelling degree” value is recorded as 12.8 ± 4.1 mg and the “Inhibition (%) of ear swelling” value is given as 21.9%.

Take `CC(=O)c1ccccc1C(=O)N1CCN(Cc2cccc(Cl)c2)CC1` [Compound 6i, 1–(2-(4–(3-Chlorobenzyl)piperazine-1-carbonyl)phenyl)ethan-1-one]: the “Swelling degree” value is 12.0 ± 3.0 mg and the “Inhibition (%) of ear swelling” value is 26.8%.

In the case of `CC(=O)c1ccccc1C(=O)N1CCN(Cc2ccccc2)CC1` [Compound 6k, 1–(2-(4-Benzylpiperazine-1-carbonyl)phenyl)ethan-1-one], the “Swelling degree” value is recorded as 13.0 ± 3.5 mg and the “Inhibition (%) of ear swelling” value was 20.7%.

Regarding `CC(=O)c1ccccc1C(=O)N1CCN(Cc2ccc(C)cc2)CC1` [Compound 6l, 1–(2-(4–(4-Methylbenzyl)piperazine-1-carbonyl)phenyl)ethan-1-one], the “Swelling degree” value was 11.4 ± 3.2 mg and the “Inhibition (%) of ear swelling” value was 30.5%.

In the case of `COc1ccc(CN2CCN(C(=O)c3ccccc3C(C)=O)CC2)c(OC)c1` [Compound 6m, 1–(2-(4–(2,4-Dimethoxybenzyl)piperazine-1-carbonyl)phenyl)ethan-1-one], the “Swelling degree” value is recorded as 11.6 ± 2.4 mg and the “Inhibition (%) of ear swelling” value is 29.3%.

As to `COc1cccc(CN2CCN(C(=O)c3ccccc3C(C)=O)CC2)c1` [Compound 6o, 1–(2-(4–(3-Methoxybenzyl)piperazine-1-carbonyl)phenyl)ethan-1-one], the “Swelling degree” value was 13.0 ± 4.4 mg and the “Inhibition (%) of ear swelling” value was 20.7%.

Take `CC(=O)c1ccccc1C(=O)N1CCN(Cc2ccc3c(c2)OCO3)CC1` [Compound 6p, 1–(2-(4-(Benzo[d][1,3]dioxol-5-ylmethyl)piperazine-1-carbonyl)phenyl)ethan-1-one]: the “Swelling degree” value is on record as 11.0 ± 3.2 mg and the “Inhibition (%) of ear swelling” value is 32.9%. Under “p.o. 5 mg/kg, p < 0.01”, the “in vivo inhibitory activity, in words” value is recorded as “significant inhibitory activity”.
